{"source": "patent US8598118B2", "about": "“Hepatocyte growth factor mimics as therapeutic agents” (Washington State University, priority 2011, dated 2013)", "key": {"c-Met receptor": {"tested_on": "c-Met receptor", "test": "c-Met phosphorylation in acute adult rat hippocampal slices", "assay_type": "cell-based", "conditions": "30 minutes", "text": "Adult Sprague-Dawley rats (250 g+) obtained from Harlan Laboratories (Ca, USA) were anesthetized with isofluorane (Vet One™, MWI, Meridian, Id., USA) and decapitated. The brain was rapidly removed and placed into ice-chilled artificial cerebrospinal fluid (aCSF) for approximately 30 s. Both hemispheres were separated by a mid-saggital cut and both hippocampi removed. Slices were sectioned cross- and length-wise (400 μm) to ensure penetrability of the drug, using a McIlwain tissue chopper (Brinkmann, Gomshall, UK) and transferred to a gassed (95% O2/5% CO2) incubation chamber containing aCSF for 90 minutes at room temperature. […]\nProtein concentration of the samples was quantified using the BCA method (Pierce, Rockford, Ill.) following the manufacturers protocol. […]"}, "hippocampal neurons": {"tested_on": "hippocampal neurons", "test": "Immunocytochemistry: percent correlation of spines to synaptic markers (VGLUT1, Synapsin, PSD-95)", "assay_type": "cell-based, rat", "conditions": "HGF 10 ng/ml, 5 days", "method": "Transfected neurons were treated, fixed and stained. Briefly, cells were permeablized with 0.1% Triton X-100 detergent (Bio-Rad; Hercules, Calif.) for 10 minutes. An 8% bovine serum albumin (Intergen Company; Burlington, Mass.) in PBS was used to prevent non-specific binding for one hour at R.T.; Primary antibody incubations were at a 1:2500 dilution (see below) in 1% BSA in PBS at 4° C. overnight. Secondary antibody, 1:3000 Alexafluor 488 goat-anti-mouse (Invitrogen: Carlsbad, Calif.) was applied for two hours at room temperature. Coverslips were mounted with ProLong Gold anti-fade reagent (Invitrogen; Carlsbad, Calif.) and all washes were done with PBS. Imaging and analysis were performed as described above. […] In each instance the total number of spines was counted for the treatment groups, control, Nle1-AngIV and Dihexa, to ensure an active phenotype. The total number of actin enriched spines adjacent to VGLUT1 or Synapsin were counted and converted to a percentage as the percent correlation of treatment-induced spines to presynaptic markers is a strong indicator of ability to transmit excitatory signals.\nTransfected neurons were treated, fixed and stained as previously described in Chapter two. […] In each instance the total number of spines was counted for the treatment groups, control, Nle1-AngIV and Dihexa, to ensure an active phenotype. […]"}, "CA1 hippocampal neurons": {"tested_on": "CA1 hippocampal neurons", "test": "Spinogenesis in organotypic hippocampal slice cultures", "assay_type": "cell-based, rat", "conditions": "HGF 10 ng/ml, 48 hours, organotypic slices", "method": "(§1) Hippocampi from P4 Sprague Dawley rats were cultured as previously described (Wayman, Impey et al. 2006). Briefly, 400 μm slices were cultured on (Milipore, Billerica, Mass.) for 3 days after which they were biolistically transfected with tomato fluorescent protein (TFP) using a Helios Gen Gun (BioRad, Hercules, Calif.), according to the manufacturer's protocol, to visualize dendritic arbors. Following a 24 hour recovery period slices were stimulated with vehicle (H2O), 1 pM Nle1-AngIV or Dihexa for 2 days. Slices were fixed and mounted. Hippocampal CA1 neuronal processes were imaged and measured as described above.\nas §1, with “Gene” for “Gen”, “with” for “with vehicle (H2O),”"}}, "data": [{"substance": "HGF: carrier free adult recombinant Hepatocyte Growth Factor (R and D Systems)", "values": [{"measurement": "c-Met phosphorylation vs control (aCSF) slices", "setting": "c-Met receptor; HGF 50 ng/ml (non-saturating)", "value": "not statistically different from control treated slices"}, {"measurement": "c-Met phosphorylation vs control (aCSF) slices", "setting": "c-Met receptor; HGF 100 ng/ml (saturating)", "value": "increased c-Met phosphorylation"}, {"measurement": "percent correlation of spines to Synapsin", "setting": "hippocampal neurons", "value": 98, "unit": "%"}, {"measurement": "number of spines per 50 μm dendrite length, CA1 neurons", "setting": "CA1 hippocampal neurons", "value": 18.5}]}]}
